Patent publication US20210139507A1, “FUSED PYRIDINES WHICH ACT AS INHIBITORS OF H PGDS” (GlaxoSmithKline Intellectual Property Development Limited, priority 2017, published 2021)

What was measured:
[1] = target: T1, hematopoietic prostaglandin D synthase (H-PGDS) (Homo sapiens, UniProt O60760); assay: H-PGDS RapidFire High Throughput Mass Spectrometry Assay; type: biochemical; settings: conversion of PGH2 to PGD2 by human H-PGDS, 10 nM enzyme; for IC50: mean pIC50, read-out: Potency Range (mean pIC50) (converted)
T1 construct: Full length human H-PGDS cDNA (Invitrogen Ultimate ORF IOH13026) was amplified by PCR; 6-His (N); TEV protease cleavage site (N); made in house; host or cells: E. coli BL21 (DE3*), vector pET22b+
T1 sequence (O60760 whole entry): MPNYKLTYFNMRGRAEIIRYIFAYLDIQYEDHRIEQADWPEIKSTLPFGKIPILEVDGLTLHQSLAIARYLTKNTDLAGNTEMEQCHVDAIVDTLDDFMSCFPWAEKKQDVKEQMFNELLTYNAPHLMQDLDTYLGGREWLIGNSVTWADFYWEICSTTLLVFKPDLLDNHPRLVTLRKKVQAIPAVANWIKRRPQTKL
Procedure: The H-PGDS RapidFire™ mass spectrometric assay monitors conversion of prostaglandin H2 (PGH2) to prostaglandin D2 (PGD2) by hematopoietic prostaglandin D synthase (H-PGDS). In the assay format described here, the substrate (PGH2) is formed in situ by the action of cyclooxygenase-2 on arachidonic acid. This first step is set up to be fast, and generates a burst of PGH2 at ˜10 μM. The PGH2 is then further converted to PGD2 by the H-PGDS enzyme. […] Plates are then read on the RapidFire™ high throughput solid phase extraction system (Agilent) which incorporates a solid phase extraction step coupled to a triple quadrupole mass spectrometer (AB SCIEX). Relative levels of PGD2 and PGF2α, which acts as a surrogate for substrate, are measured and a percent conversion calculated. Inhibitors are characterized as compounds which lower the conversion of PGH2 to PGD2.
Full length human H-PGDS cDNA (Invitrogen Ultimate ORF IOH13026) was amplified by PCR with the addition of a 5′ 6-His tag and TEV protease cleavage site. The PCR product was digested with NdeI and XhoI and ligated into pET22b+ (Merck Novagen®). Expression was carried out in E. coli strain BL21 (DE3*) using auto-induction Overnight Express™ Instant TB medium (Merck Novagen®) supplemented with 1% glycerol. The culture was first grown at 37° C. and the temperature was reduced to 25° C. when OD600 reached 2.0. Cells were harvested by centrifugation after a further 18 hours. 10 g of E. coli cell pellet was suspended to a total volume of 80 mL in lysis buffer (20 mM Tris-Cl pH 7.5, 300 mM NaCl, 20 mM imidazole, 5 mM β-mercaptoethanol, 10% glycerol). 1 mg/mL protease inhibitors (Protease Inhibitor Cocktail Set III, Merck Calbiochem®) and 1 mg/mL lysozyme were added to the cell suspension. The suspension was then sonicated for 5 min (Ultrasonic Processor VCX 750, Cole-Parmer Instrument Co.) with a micro probe (50% amplitude, 10 sec on/off) and then centrifuged at 100,000 g for 90 minutes (at 4° C.). The supernatant was loaded onto a Ni-NTA HiTrap column (5 mL, GE Healthcare, pre-equilibrated in lysis buffer). The column was washed with 10 column volumes of lysis buffer and eluted with lysis buffer containing 500 mM imidazole. The pooled protein peak fractions were concentrated using a 10 kDa centrifugal filter at 3500 g and 4° C. (Amicon Ultra-15 centrifugal filter unit with Ultracel-10 membrane from Millipore). Further purification of the concentrated protein was carried out using gel filtration chromatography on a HiLoad 26/600 Superdex75 preparative grade column (GE Healthcare Life Sciences) using 50 mM Tris pH 7.5, 50 mM NaCl, 1 mM dithiothreitol, 1 mM MgCl2. Fractions containing the protein were pooled, concentrated as described above, and stored at −80° C.
The full length human COX-2 gene (accession number L15326) was amplified by PCR to generate an EcoRI-Hindi 11 fragment containing an in-frame FLAG tag. This was subcloned into pFastBac 1 (Invitrogen). The COX-2 FLAG plasmid was recombined into the baculovirus genome according to the BAC-to-BAC protocol described by Invitrogen. Transfection into Spodoptera frugiperda (Sf9) insect cells was performed using Cellfectin (Invitrogen), according to the manufacturer's protocol. Super Sf9 cells were cultured in EX420 media (SAFC Biosciences) to a density of approximately 1.5×10^6 cells/mL within a wave bioreactor. Recombinant virus was added at a Multiplicity of Infection (MOI) of 5 and the culture was allowed to continue for 3 days. Cells were harvested using a continuous feed centrifuge run at 2500 g at a rate of approximately 2 L/min with cooling. The resultant cell slurry was re-centrifuged in pots (2500 g, 20 min, 4° C.) and the cell paste was stored at −80° C. 342 g of cell paste was re-suspended to a final volume of 1600 mL in a buffer of 20 mM Tris-Cl pH 7.4, 150 mM NaCl, 0.1 mM EDTA, 1.3% w/v n-octyl-β-D-glucopyranoside containing 20 Complete EDTA-free Protease Inhibitor Cocktail tablets (Roche Applied Science). […]

[2] = tested on: male mdx mice; assay: In vivo assay for functional response to muscle injury (eccentric contraction-induced muscle fatigue); set-up: species or system mouse; settings: 7 months of age, PO 0.1, 1 and 10 mg/kg QD beginning 10 min prior to challenge, versus vehicle, FIG. 1
Description: Under anesthesia, the right hind limb of a mouse is restrained at the knee and the foot attached to a motorized footplate/force transducer. Needle electrodes are inserted into the upper limb, either side of the sciatic nerve and a current sufficient to elicit a maximal muscle contraction is applied. Muscle tension is produced by moving the footplate to lengthen the plantarflexor muscles while the limb is under maximal stimulation. This is repeated 60 times to fatigue the muscles of the lower limb. Anesthesia, limb immobilization and limb stimulation are then repeated at regular intervals to measure maximal isometric force in the recovering limb. 7 to 9 animals are tested for each test condition.

Compound	IC50 [1] [nM]	kinetics of recovery of maximal isometric torque after eccentric contraction challenge [2]	Potency Range (mean pIC50) [1]
CC(C)(O)C12CC(NC(=O)c3cnc4cc(Br)sc4c3)(C1)C2 [Example 11, 2-Bromo-N-(3-(2-hydroxypropan-2-yl)bicyclo[1.1.1]pentan-1-yl)thieno[3,2-b]pyridine-6-carboxamide]	100 to 1000	–	–
CS(=O)(=O)CC(O)[C@H]1CC[C@H](NC(=O)c2cnc3nc(C4CC4)sc3c2)CC1 (mixture of isomers) [Example 28, Racemic 2-cyclopropyl-N-(trans-4-(1-hydroxy-2-(methylsulfonyl)ethyl)cyclohexyl)thiazolo[4,5-b]pyridine-6-carboxamide]	100 to 1000	–	–
CN(C)c1nc2ncc(C(=O)N[C@H]3CC[C@H](C(C)(C)O)CC3)cc2s1 [Example 9]	10 to 79.4	–	–
CNc1nc2ncc(C(=O)N[C@H]3CC[C@H](C(C)(C)O)CC3)cc2s1 [Example 7]	100 to 1000	–	–
O=C(N[C@H]1CCNC1=O)c1cnc2nc(C3CC3)sc2c1 [Example 19, (S)-2-Cyclopropyl-N-(2-oxopyrrolidin-3-yl)thiazolo[4,5-b]pyridine-6-carboxamide]	100 to 1000	–	–
CSc1nc2ncc(C(=O)N[C@H]3CC[C@H](C(C)(C)O)CC3)cc2s1 [Example 39, N-((trans)-4-(2-Hydroxypropan-2-yl)cyclohexyl)-2-(methylthio)thiazolo[4,5-b]pyridine-6-carboxamide]	10 to 79.4	–	–
CC(C)(O)[C@H]1CC[C@H](NC(=O)c2cnc3nc(C4CCC4)sc3c2)CC1 [Example 14, 2-Cyclobutyl-N-((trans)-4-(2-hydroxypropan-2-yl)cyclohexyl)thiazolo[4,5-b]pyridine-6-carboxamide]	10 to 79.4	–	–
C[C@]1(O)C[C@@H](NC(=O)c2cnc3cc(C4CC4)sc3c2)C1 [Example 4]	1260 to 10000	–	–
CC(C)(O)C12CC(NC(=O)c3cnc4nc(C5CC5)sc4c3)(C1)C2 [Example 13, 2-Cyclopropyl-N-(3-(2-hydroxypropan-2-yl)bicyclo[1.1.1]pentan-1-yl)thiazolo[4,5-b]pyridine-6-carboxamide]	100 to 1000	–	–
Cn1nnnc1N1CCC(NC(=O)c2cnc3nc(C4CC4)sc3c2)CC1 [Example 31, 2-Cyclopropyl-N-(1-(1-methyl-1H-tetrazol-5-yl)piperidin-4-yl)thiazolo[4,5-b]pyridine-6-carboxamide]	100 to 1000	–	–
CC(C)(O)[C@H]1CC[C@H](NC(=O)c2cnc3nc(C4CC4)sc3c2)CC1 [Example 8]	10 to 79.4	exhibited an acceleration in the kinetics of recovery	–
O=C(N[C@H]1CC[C@H](O)CC1)c1cnc2nc(C3CC3)sc2c1 [Example 16, 2-Cyclopropyl-N-((trans)-4-hydroxycyclohexyl)thiazolo[4,5-b]pyridine-6-carboxamide]	100 to 1000	–	–
CC(C)N(c1nc2ncc(C(=O)N[C@H]3CC[C@H](C(C)(C)O)CC3)cc2s1)C(C)C [Example 37, 2-(Diisopropylamino)-N-(trans-4-(2-hydroxypropan-2-yl)cyclohexyl)thiazolo[4,5-b]pyridine-6-carboxamide]	1260 to 10000	–	–
N-(trans-4-(2-Hydroxypropan-2-yl)cyclohexyl)-2-((1S,2R)-2-methylcyclopropyl)thieno[3,2-b]pyridine-6-carboxamide and N-(trans-4-(2-hydroxypropan-2-yl)cyclohexyl)-2-((1R,2S)-2-methylcyclopropyl)thieno[3,2-b]pyridine-6-carboxamide [Example 10]	–	–	*** (*** = pIC50 7.1-8.0)
